{
  "source": "the supplement of paper PMC11208160",
  "data": [
    {"experiment": "recombinant UMI read abundance after kanamycin selection (control-corrected) (log10(CPM+1)); higher = more efficient recombination; extreme values may be limits of the assay; sequences stand for … in AGTGCAGAGAAAATCGGCCAGTTTTCTCTGCCTGCAGTCCGCATGCCGTGGGACCCCTTGGGTTCTAACCTGTTGCCTAGATTTATGCAGCGGACTGCCTTTCTCCCAAAGTGATAAACCGG…AGGTTGGTTTCACT; site = the 11-nt donor", "outline": "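For the IS621 bridge recombinase, a pooled Escherichia coli screen tested donor and donor-binding-loop pairs. Cells received the pair library together with a target plasmid encoding a fixed target and T7-inducible recombinase, then went onto IPTG (0.07 mM) plus kanamycin or unselected plates in duplicate. After PCR across the donor–target junction and sequencing, recombinant UMI counts were normalized to CPM, averaged, and scaled by control-derived factors. Each value is given as log10(CPM+1).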", "values": [
      {"sequence": "GCTACTGCATGGACCGGTTTTCCCGGTAATCCGTATTTGCG (site GCTACTGCTCG)", "recombinant UMI read abundance (log10)": 1.27},
      {"sequence": "GCTACTGCATGGACCGGTTTTCCCGGTAATCCGTATTTGCG (site GCTACTGCTGG)", "recombinant UMI read abundance (log10)": 0},
      {"sequence": "GCTACTGCATGGACCGGTTTTCCCGGTAATCCGTATTTGCG (site GCTACTGCTTG)", "recombinant UMI read abundance (log10)": 1.35},
      {"sequence": "GCTACTGCATGGACCGGTTTTCCCGGTAATCCGTATTTGTC (site GCTACTGCTGA)", "recombinant UMI read abundance (log10)": 1.83},
      {"sequence": "GCTACTGCATGGACCGGTTTTCCCGGTAATCCGTATTTGTC (site GCTACTGCTGC)", "recombinant UMI read abundance (log10)": 0},
      {"sequence": "GCTACTGCATGGACCGGTTTTCCCGGTAATCCGTATTTGTC (site GCTACTGCTGG)", "recombinant UMI read abundance (log10)": 0.571},
      {"sequence": "GCTACTGCATGGACCGGTTTTCCCGGTAATCCGTATTTGTC (site GCTACTGCTGT)", "recombinant UMI read abundance (log10)": 0.512},
      {"sequence": "GCTAGAACATGGACCGGTTTTCCCGGTAATCCGTATTTGAG (site ACTAGAACTCT)", "recombinant UMI read abundance (log10)": 0.959},
      {"sequence": "GCTAGAACATGGACCGGTTTTCCCGGTAATCCGTATTTGAG (site CCTAGAACTCT)", "recombinant UMI read abundance (log10)": 0.439},
      {"sequence": "GCTAGAACATGGACCGGTTTTCCCGGTAATCCGTATTTGAG (site GCTAGAACTCT)", "recombinant UMI read abundance (log10)": 1.83},
      {"sequence": "GCTAGAACATGGACCGGTTTTCCCGGTAATCCGTATTTGAG (site TCTAGAACTCT)", "recombinant UMI read abundance (log10)": 0.815},
      {"sequence": "GCTAGGCCATGGACCGGTTTTCCCGGTAATCCGTATTTGAG (site GCTAGGCCTCT)", "recombinant UMI read abundance (log10)": 0.0384},
      {"sequence": "GCTATACCATGGACCGGTTTTCCCGGTAATCCGTATTTGTA (site GCTATACCTTA)", "recombinant UMI read abundance (log10)": 0.0042},
      {"sequence": "GCTATCTCATGGACCGGTTTTCCCGGTAATCCGTATTTGAA (site GCTATCTCTTT)", "recombinant UMI read abundance (log10)": 1.86},
      {"sequence": "GCTCCTGCATGGACCGGTTTTCCCGGTAATCCGTATTTGCC (site GCTACTGCTGG)", "recombinant UMI read abundance (log10)": 0.902},
      {"sequence": "GCTCCTGCATGGACCGGTTTTCCCGGTAATCCGTATTTGCC (site GCTCCTGCTGG)", "recombinant UMI read abundance (log10)": 0.921},
      {"sequence": "GCTCCTGCATGGACCGGTTTTCCCGGTAATCCGTATTTGCC (site GCTGCTGCTGG)", "recombinant UMI read abundance (log10)": 0},
      {"sequence": "GCTCCTGCATGGACCGGTTTTCCCGGTAATCCGTATTTGCC (site GCTTCTGCTGG)", "recombinant UMI read abundance (log10)": 0},
      {"sequence": "GCTGGCCCATGGACCGGTTTTCCCGGTAATCCGTATTTGAT (site GCTAGCCCTAT)", "recombinant UMI read abundance (log10)": 0.0226},
      {"sequence": "GCTGGCCCATGGACCGGTTTTCCCGGTAATCCGTATTTGAT (site GCTCGCCCTAT)", "recombinant UMI read abundance (log10)": 0.00439},
      {"sequence": "GCTGGCCCATGGACCGGTTTTCCCGGTAATCCGTATTTGAT (site GCTGGCCCTAT)", "recombinant UMI read abundance (log10)": 0.00519},
      {"sequence": "GCTGGCCCATGGACCGGTTTTCCCGGTAATCCGTATTTGAT (site GCTTGCCCTAT)", "recombinant UMI read abundance (log10)": 0},
      {"sequence": "GCTGGTCCATGGACCGGTTTTCCCGGTAATCCGTATTTGTA (site GCTGGTCCTTA)", "recombinant UMI read abundance (log10)": 0.297},
      {"sequence": "GCTGTCCCATGGACCGGTTTTCCCGGTAATCCGTATTTGGC (site GCTGTCCCTGC)", "recombinant UMI read abundance (log10)": 0},
      {"sequence": "GCTGTTCCATGGACCGGTTTTCCCGGTAATCCGTATTTGGT (site GATGTTCCTAC)", "recombinant UMI read abundance (log10)": 0.0117},
      {"sequence": "GCTGTTCCATGGACCGGTTTTCCCGGTAATCCGTATTTGGT (site GCTGTTCCTAC)", "recombinant UMI read abundance (log10)": 0},
      {"sequence": "GCTGTTCCATGGACCGGTTTTCCCGGTAATCCGTATTTGGT (site GGTGTTCCTAC)", "recombinant UMI read abundance (log10)": 0.0107},
      {"sequence": "GCTGTTCCATGGACCGGTTTTCCCGGTAATCCGTATTTGGT (site GTTGTTCCTAC)", "recombinant UMI read abundance (log10)": 0},
      {"sequence": "GCTTGCCCATGGACCGGTTTTCCCGGTAATCCGTATTTGAT (site ACTTGCCCTAT)", "recombinant UMI read abundance (log10)": 0},
      {"sequence": "GCTTGCCCATGGACCGGTTTTCCCGGTAATCCGTATTTGAT (site CCTTGCCCTAT)", "recombinant UMI read abundance (log10)": 0.0733},
      {"sequence": "GCTTGCCCATGGACCGGTTTTCCCGGTAATCCGTATTTGAT (site GATTGCCCTAT)", "recombinant UMI read abundance (log10)": 0.0145},
      {"sequence": "GCTTGCCCATGGACCGGTTTTCCCGGTAATCCGTATTTGAT (site GCATGCCCTAT)", "recombinant UMI read abundance (log10)": 0.0036},
      {"sequence": "GCTTGCCCATGGACCGGTTTTCCCGGTAATCCGTATTTGAT (site GCCTGCCCTAT)", "recombinant UMI read abundance (log10)": 0.0885},
      {"sequence": "GCTTGCCCATGGACCGGTTTTCCCGGTAATCCGTATTTGAT (site GCGTGCCCTAT)", "recombinant UMI read abundance (log10)": 0.0338},
      {"sequence": "GCTTGCCCATGGACCGGTTTTCCCGGTAATCCGTATTTGAT (site GCTAGCCCTAT)", "recombinant UMI read abundance (log10)": 0.00265},
      {"sequence": "GCTTGCCCATGGACCGGTTTTCCCGGTAATCCGTATTTGAT (site GCTCGCCCTAT)", "recombinant UMI read abundance (log10)": 0.249},
      {"sequence": "GCTTGCCCATGGACCGGTTTTCCCGGTAATCCGTATTTGAT (site GCTGGCCCTAT)", "recombinant UMI read abundance (log10)": 0.00346},
      {"sequence": "GCTTGCCCATGGACCGGTTTTCCCGGTAATCCGTATTTGAT (site GCTTACCCTAT)", "recombinant UMI read abundance (log10)": 0.00934},
      {"sequence": "GCTTGCCCATGGACCGGTTTTCCCGGTAATCCGTATTTGAT (site GCTTCCCCTAT)", "recombinant UMI read abundance (log10)": 0.0974},
      {"sequence": "GCTTGCCCATGGACCGGTTTTCCCGGTAATCCGTATTTGAT (site GCTTGACCTAT)", "recombinant UMI read abundance (log10)": 0.0101},
      {"sequence": "GCTTGCCCATGGACCGGTTTTCCCGGTAATCCGTATTTGAT (site GCTTGCACTAT)", "recombinant UMI read abundance (log10)": 0.00776},
      {"sequence": "GCTTGCCCATGGACCGGTTTTCCCGGTAATCCGTATTTGAT (site GCTTGCCCTAA)", "recombinant UMI read abundance (log10)": 0.00772},
      {"sequence": "GCTTGCCCATGGACCGGTTTTCCCGGTAATCCGTATTTGAT (site GCTTGCCCTAC)", "recombinant UMI read abundance (log10)": 0.00771},
      {"sequence": "GCTTGCCCATGGACCGGTTTTCCCGGTAATCCGTATTTGAT (site GCTTGCCCTAG)", "recombinant UMI read abundance (log10)": 0},
      {"sequence": "GCTTGCCCATGGACCGGTTTTCCCGGTAATCCGTATTTGAT (site GCTTGCCCTAT)", "recombinant UMI read abundance (log10)": 0.0141},
      {"sequence": "GCTTGCCCATGGACCGGTTTTCCCGGTAATCCGTATTTGAT (site GCTTGCCCTCT)", "recombinant UMI read abundance (log10)": 0.0236},
      {"sequence": "GCTTGCCCATGGACCGGTTTTCCCGGTAATCCGTATTTGAT (site GCTTGCCCTGT)", "recombinant UMI read abundance (log10)": 0},
      {"sequence": "GCTTGCCCATGGACCGGTTTTCCCGGTAATCCGTATTTGAT (site GCTTGCCCTTT)", "recombinant UMI read abundance (log10)": 0.0171},
      {"sequence": "GCTTGCCCATGGACCGGTTTTCCCGGTAATCCGTATTTGAT (site GCTTGCGCTAT)", "recombinant UMI read abundance (log10)": 0.0038},
      {"sequence": "GCTTGCCCATGGACCGGTTTTCCCGGTAATCCGTATTTGAT (site GCTTGCTCTAT)", "recombinant UMI read abundance (log10)": 0.571},
      {"sequence": "GCTTGCCCATGGACCGGTTTTCCCGGTAATCCGTATTTGAT (site GCTTGGCCTAT)", "recombinant UMI read abundance (log10)": 0.0246},
      {"sequence": "GCTTGCCCATGGACCGGTTTTCCCGGTAATCCGTATTTGAT (site GCTTGTCCTAT)", "recombinant UMI read abundance (log10)": 0.00271},
      {"sequence": "GCTTGCCCATGGACCGGTTTTCCCGGTAATCCGTATTTGAT (site GCTTTCCCTAT)", "recombinant UMI read abundance (log10)": 0},
      {"sequence": "GCTTGCCCATGGACCGGTTTTCCCGGTAATCCGTATTTGAT (site GGTTGCCCTAT)", "recombinant UMI read abundance (log10)": 0.0122},
      {"sequence": "GCTTGCCCATGGACCGGTTTTCCCGGTAATCCGTATTTGAT (site GTTTGCCCTAT)", "recombinant UMI read abundance (log10)": 0.00461},
      {"sequence": "GCTTGCCCATGGACCGGTTTTCCCGGTAATCCGTATTTGAT (site TCTTGCCCTAT)", "recombinant UMI read abundance (log10)": 0.0164},
      {"sequence": "GCTTGCGCATGGACCGGTTTTCCCGGTAATCCGTATTTGAT (site GCTTGCACTAT)", "recombinant UMI read abundance (log10)": 0.734},
      {"sequence": "GCTTGCGCATGGACCGGTTTTCCCGGTAATCCGTATTTGAT (site GCTTGCCCTAT)", "recombinant UMI read abundance (log10)": 0.00863},
      {"sequence": "GCTTGCGCATGGACCGGTTTTCCCGGTAATCCGTATTTGAT (site GCTTGCGCTAT)", "recombinant UMI read abundance (log10)": 1.72},
      {"sequence": "GCTTGCGCATGGACCGGTTTTCCCGGTAATCCGTATTTGAT (site GCTTGCTCTAT)", "recombinant UMI read abundance (log10)": 0},
      {"sequence": "GGAACCCCATGGACCGGTTTTCCCGGTAATCCGTATTTGTC (site GGAACCCCTGA)", "recombinant UMI read abundance (log10)": 0.334},
      {"sequence": "GGAAGCACATGGACCGGTTTTCCCGGTAATCCGTATTTGTG (site GGAAGCACTCA)", "recombinant UMI read abundance (log10)": 1.4},
      {"sequence": "GGAATTCCATGGACCGGTTTTCCCGGTAATCCGTATTTGCA (site GGAATTCCTTG)", "recombinant UMI read abundance (log10)": 0},
      {"sequence": "GGACCACCATGGACCGGTTTTCCCGGTAATCCGTATTTGCG (site GGACCACCTCG)", "recombinant UMI read abundance (log10)": 0.0308},
      {"sequence": "GGACGCTCATGGACCGGTTTTCCCGGTAATCCGTATTTGAG (site GGACGCTCTCT)", "recombinant UMI read abundance (log10)": 1.55},
      {"sequence": "GGACGTCCATGGACCGGTTTTCCCGGTAATCCGTATTTGCC (site GGACGTCCTGG)", "recombinant UMI read abundance (log10)": 1.75},
      {"sequence": "GGACTAGCATGGACCGGTTTTCCCGGTAATCCGTATTTGCG (site GGACTAGCTCG)", "recombinant UMI read abundance (log10)": 2.05},
      {"sequence": "GGACTCACATGGACCGGTTTTCCCGGTAATCCGTATTTGCA (site GGACTCACTTG)", "recombinant UMI read abundance (log10)": 2.37}
    ]}
  ]
}
